# Reference: US8847003B2, “Role of proteoglycans in drug dependence” (priority 2002, dated 2014)
# Ends that are not written are not given here.
# Experiments:
# [1] = test system: mouse hypothalamic protein extracts; test: Cleavage of internally-quenched fluorogenic peptides by hypothalamic protein extracts; format: biochemical; settings: 37° C., 50 mM Tris-HCl buffer, pH 7.0; for proteolytic cleavage of the fluorogenic peptide by hypothalamic extracts: peptide as substrate
# Description: According to one of the embodiments of the invention, syndecan-3 sheddases are identified by an assay for syndecan-3 cleavage, which requires knowledge of the cleavage site. The cleavage site for syndecan-3 cleavage is not presently completely identified. However, according to embodiments of the invention, we designed a battery of overlapping internally-quenched fluorogenic peptides spanning the juxta-membrane region of the mouse syndecan-3 (Amino Acid residues 355-388) labeled at their ends with Abz (ortho-aminobenzoyl) and EDDnp (ethylenediaminedinitrophenyl) for fluorescent detection of proteolytic cleavage (FIG. 7A). The peptides were individually incubated with mouse hypothalamic protein extracts at 37° C. in 50 mM Tris-HCl buffer, pH 7.0. Fluorescence was continuously measured at λex=320 nm and λem=420 nm. […] Proteolytic activity is expressed as reaction rate (activity/μl/min). […] Thus, this peptide or a peptide overlapping this peptide can be used in an assay to identify the sheddase of syndecan-3 and/or drugs that prevent or facilitate shedding (inhibitors, activators, mimics antimimics).
# While the invention has been described in conjunction with the detailed description, the foregoing description is intended to illustrate and not limit the scope of the invention, which is defined by the scope of the appended claims. Other aspects, advantages, and modifications are within the scope of the following claims.
# syndecan-mutant mice = test: Cue-induced reinstatement of cocaine-seeking behavior; format: in vivo; settings: for reinstatement of cocaine seeking behavior in mice (figure legend): FIG. 6 legend
# Description: . Separate groups of mice of the 3 syndecan mutant genotypes (syndecan-3 knockout, whole syndecan-1 transgenic, and syndecan-1 ectodomain transgenic mice) were trained to self-administer cocaine by intravenous injection as described above. Mice were subjected to 7 sessions of 1-hour access to self-administration followed by 8 sessions of 6-hour access as described above.
# Mice were allowed one 1-hour extinction session/day for a minimum of 14 days, until an extinction criterion was reached. The extinction criterion was designated as a group mean of less than 10 responses/1 hour for two consecutive sessions on the active lever.
# The conditions during testing were identical to those during the extinction phase, with the exception that lever presses led to presentations of the cocaine cue-light for 5 seconds. The 1-hour test session for cue-induced reinstatement were conducted on the day following the last extinction session. A one way ANOVA with one between factor (genotype, three) were used to measure any differential effects of the cocaine-related cue induced reinstatement.
# In still another example, the following experiment was performed showing that a wide spectrum of MMP inhibitors block cue-induced reinstatement of cocaine seeking behavior. Lever-pressing behavior in cocaine self-administering syndecan-mutant mice was extinguished in the absence of the 20 sec cue light (CS) that was paired with cocaine infusions during the training phase as shown in Example 4. […] In FIG. 6B, After a few days, animals were again presented with the cue light non-contingently and on the third day of reinstatement they were administered IP the systemically active broad-spectrum MMP inhibitor prinomastat (20 mg/Kg) 30-60 min before the reinstatement sessions starting on the third session.
# Rotarod performance = format: in vivo, mice; settings: prinomastat at the dose used (20 mg/Kg IP); data not shown
# syndecan-3 = test: Western blot of uncleaved syndecan-3 after ICV GM-6001 in mice; format: in vivo, C57BL/6J mice; settings: for uncleaved syndecan-3 / shedding of syndecan-3 (western blot, syndecan-3 C-terminal domain antibody): ICV at various doses, sacrificed 3 hours after administration
# Description: FIG. 5B. Quantification of western blot shown in (A).
compound,measurement,setting,value
"RPGLGLHDNA (not fully specified; also: fluorophore/quencher pair (positions not given here); listed as Mus musculus) [Peptide 1, internally-quenched fluorogenic peptide from mouse syndecan-3 juxta-membrane region]",proteolytic cleavage of the fluorogenic peptide by hypothalamic extracts,[1],efficiently hydrolized
Mca-PLQAV-Dpa-RSSSR-NH2 [Compound E003],proteolytic cleavage of the fluorogenic peptide by hypothalamic extracts,[1],observed activity
"CC1(C)SCCN(S(=O)(=O)c2ccc(Oc3ccncc3)cc2)[C@H]1C(=O)NO [prinomastat, Prinomastat]",reinstatement of cocaine seeking behavior in mice (figure legend),syndecan-mutant mice,block reinstatement of cocaine seeking behavior
same,responding during reinstatement,"syndecan-mutant mice; prinomastat 20 mg/Kg IP 30-60 min before sessions, syndecan-1 ectodomain Tg mice, p<0.01 from last day before treatment",significantly declined
same,performance on the rotarod,Rotarod performance,did not affect
Ilomastat [GM6001],reinstatement of cocaine seeking behavior in mice (figure legend),syndecan-mutant mice,block reinstatement of cocaine seeking behavior
same,"responding during reinstatement, last day before treatment vs last day of treatment","syndecan-mutant mice; GM6001 0.4 μg ICV 30-60 min before sessions, syndecan-3 KO mice",not significantly different
same,cocaine seeking behavior (responding) during reinstatement,"syndecan-mutant mice; GM6001 0.4 μg ICV 30-60 min before sessions, whole syndecan-1 Tg mice, p<0.01 from last day before treatment",greatly reduced
same,"uncleaved syndecan-3 / shedding of syndecan-3 (western blot, syndecan-3 C-terminal domain antibody)",syndecan-3,reduces shedding of syndecan-3
same,"uncleaved syndecan-3 / shedding of syndecan-3 (western blot, syndecan-3 C-terminal domain antibody)",syndecan-3; listed as GM-6001,accumulation of uncleaved syndecan-3
same,increase of uncleaved syndecan-3 (quantification of western blot),"syndecan-3; ICV, highest doses tested (0.4 μg, 2.0 μg), p<0.01 from vehicle-injected control",about 3 fold
c1cnc2c(c1)ccc1cccnc12 [ortho-phenanthroline],inhibition of hydrolysis of peptide 1 (Seq Id No. 3) by hypothalamic extract,"[1]; fluorescence λex=320 nm, λem=420 nm",completely inhibited
